We go through 7 compounds from patent publication US20130231377A1, “PACTAMYCIN ANALOGS AND METHODS OF USE” (State of Oregon acting by and through the state Board of …, priority 2010, published 2013).

In data set [1] the test system is chloroquine-sensitive clone D6 of P. falciparum. In words: Antimalarial activity assay, SYBR Green I fluorescence-based method. Format: cell-based, Plasmodium falciparum. To be noted: for IC50: read-out: Antimalarial IC50 (D6); for IC90: read-out: Antimalarial IC90 (D6). The method, then:
(§1) An antimalarial activity assay was carried out at the Oregon Translational Research and Drug Development Institute (OTRADI). Two strains of P. falciparum were used. The chloroquine-sensitive clone D6, and chloroquine-resistant and MDR clone Dd2 was obtained from the Malaria Research and Reference Reagent Resource Center (MR4) (Manassas, Va.). The parasites were cultured according to the method of Trager and Jensen (Trager and Jensen, Science, 1976, 193:673-675), with minor modifications. The cultures were maintained in human erythrocytes (Lampire Biological Laboratories, Pipersville, Pa.), suspended at 2% hematocrit in RPMI 1640 (Sigma) containing 0.5% Albumax (Invitrogen), […] hypoxanthine (Lancaster), and 50 μg/L gentamicin (Invitrogen), and incubated at 37° C. under a gas mixture of 5% O2, 5% CO2, and 90% N2. In vitro antimalarial activity was determined by a SYBR Green I fluorescence-based method described previously by Smilkstein et al. (Smilkstein et al., Antimicrob. Agents Chemother., 2004, 48:1803-1806). Frozen stock solutions of each test drug (1 mM in DMSO) were thawed, warmed to 37° C., and mixed thoroughly prior to use. Drug solutions were serially diluted with culture medium, and distributed to asynchronous parasite cultures on 96-well plates in quadruplicate in a total volume of 100 μL to achieve 0.2% parasitemia with a 2% hematocrit in a total volume of 100 μL. Automated pipeting and dilution was carried using programmable Precision XS (Bio-Tek, Winooski, Vt.) and Sciclone ALH3000 (Caliper, Hopkinton, Mass.) robotic stations. The plates then were incubated for 72 hours at temperature and gas conditions described above. After incubation, 100 μL of lysis buffer with SYBR Green I was added to each well. The plates were incubated at room temperature for 1 h and then placed in a 96-well fluorescence plate reader (Synergy4, BioTek, Winooski, Vt.) with excitation and emission wavelength at 485 nm and 528 nm, respectively, for measurement of fluorescence. The 50% inhibitory concentration (IC50) was determined by non-linear regression analysis of logistic dose-response curves (GraphPad Prism software).

Data set [2] deals with chloroquine-resistant and MDR clone Dd2 of P. falciparum. Described as above. It is filed as cell-based, Plasmodium falciparum. To be noted: for IC50: read-out: Antimalarial IC50 (Dd2); for IC90: read-out: Antimalarial IC90 (Dd2). The method, then:
as §1

The test system of data set [3] is Gram-positive and Gram-negative bacteria. In words: Antibacterial agar diffusion and micro-dilution assays, all tested strains (Example 1). Format: cell-based, S. aureus, B. subtilis, P. aeruginosa, E. coli. The following applies: for antibacterial activity in agar diffusion and micro-dilution assays (in words): at the concentrations used; for IC50: consistently higher than pactamycin, mostly >1 mM, read-out: IC50 against all tested bacterial strains. The method, then: The antibacterial activity of pactamycin and its analogs was determined by agar diffusion and micro-dilution assays. E. coli, P. aeruginosa, B. subtilis or M. smegmatis, and S. aureus were streaked on nutrient agar (Difco or Beckton-Dickinson) and grown overnight at 37° C. Colonies were transferred to nutrient broth and incubated at 37° C. for 24 hours. Turbidity of the inoculum was measured to a proper density at 600 nm (BioRad, SmartSpec 3000). For plate preparation, inoculum (500 μL) was mixed thoroughly with warm nutrient agar (50 mL) and poured to 25 mL square plates. The agar plates were allowed to solidify and dry for 30 min before assay. Sterile blank paper disks (Becton-Dickinson) were impregnated with pactamycin and its analogs (20 μL) at various concentrations and dried at room temperature. The disks were placed onto inoculated agar plates and incubated at 37° C. for 24 hours. In order to produce a contrast background of the inhibition zone, 0.25% MTT developing dye (1 mL) was added over the plates.
Micro-dilution assays were performed in 96-well plates. The compounds were serially diluted and added to the bacterial suspension at final concentrations of 1 mM-10 nM, or 0.5 mM-10 nM. After incubation at 37° C. for 24 hours, 0.25% MTT developing dye (50 μL) was added. Each assay was done in triplicate.

Data set [4] is described as follows: Cytotoxicity assay (WST-8) against HCT116 cells. It is filed as cell-based. The following applies: human, HCT116 colorectal carcinoma cells, estimated. The protocol:
HCT116 (colorectal carcinoma) cells were seeded onto a 96-well plate at 10,000 cells per well. Cells were treated with either 5, 50, 500 or 5000 nM TM-025, TM-026, N-acetyl-glucosaminyl-3-aminoacetophenone or 5, 25, 50, 100 nM pactamycin in triplicate for 48 hours. For the narrow range concentration assays, cells were treated with either 0.5, 1, 2 or 4 μM TM-025; 1, 2, 3 or 5 μM TM-026; 0.5, 2, 5 or 7 μM N-acetylglucosaminyl-3-aminoacetophenone or 12.5, 25, 50, 100 nM pactamycin in triplicate for 24 or 48 hours. WST-8 [2-(2-methoxy-4-nitrophenyl)-3-[…], monosodium salt] (Dojindo, Rockville, Md.) was added to each well to give an orange-colored formazan product, which is soluble in tissue culture medium. Absorbance was measured at 450 nm. Percent of viable cells was calculated relative to the “No Treatment” and “Solvent Only” wells.

The subject of a further data set is Mycobacterium smegmatis. In words: Antibacterial agar diffusion assay (Example 2). It is filed as cell-based. The method, then:
(§2) Antibacterial activity of pactamycin and its analogues was determined by an agar diffusion assay. E. coli, Pseudomonas aeruginosa, Mycobacterium smegmatis, and Staphylococcus aureus were streaked on nutrient agar (Difco) and grown overnight at 37° C. Colonies were transferred to nutrient broth and incubated at 37° C. for 24 hours. Turbidity of the inoculum was measured to a proper density at 600 nm (BioRad, SmartSpec 3000). For plate preparation, inoculum (500 μL) was mixed thoroughly with warm nutrient agar (50 mL) and poured to 25 mL square plates. The agar plates were allowed to solidify and dry for 30 minutes before assay. Sterile blank paper disks (Becton-Dickinson) were impregnated with pactamycin and its analogues (20 μL) at various concentrations and dried at room temperature. The disks were placed onto inoculated agar plates and incubated at 37° C. for 24 hours. In order to produce a contrast background of the inhibition zone, 0.25% MTT developing dye (1 mL) was added over the plates.

A further data set relates to Pseudomonas aeruginosa. In words: Antibacterial agar diffusion assay (Example 2). It is filed as cell-based. The method, then: as §2
(In agar diffusion tests the substance spreads into inoculated agar from a disc or well.)

A further data set has as its system Staphylococcus aureus. In words: Antibacterial agar diffusion assay (Example 2). It is filed as cell-based. The protocol:
as §2

The test system of another data set is E. coli. Kind of data set: Antibacterial agar diffusion assay (Example 2). Format: cell-based, Escherichia coli. The method, then:
as §2

In data set [5] the test system is human colon cancer HT-29 cells. Kind of data set: MTT cell viability assay in HT-29 cells. The following applies: HT-29 cells, 24-hour. Format: cell-based. The method, then: The MTT assay was carried out as described by Mosmann (J. Immunol. Methods, 1983, 65:55). Briefly, human colon cancer HT-29 cells (ATCC) were seeded in 96-well plates at a density of 1.0×10^4 cells per well. The growth medium consisted of phenol red-free RPMI 1640 (Invitrogen, Carlsbad, Calif.) containing 10% fetal bovine serum (Invitrogen, Carlsbad, Calif.), glutamine (2 mM), penicillin (100 units/mL) and streptomycin (100 μg/mL). After a 24-hour incubation at 37° C. in a humidified atmosphere of 5% CO2, the medium was removed and replaced with fresh RPMI 1640 medium (with or without 10% FBS and no penicillin or streptomycin). Increasing concentrations of pactamycin, pactamycate, de-6MSA pactamycin, or de-6MSA-pactamycate dissolved in DMSO were added to cells at a volume of 0.2 mL/well. DMSO was added to control media not to exceed a final concentration of 1%. Following a 24-hour incubation, the medium was aspirated from each well and replaced with fresh RPMI medium with 10% FBS and MTT (0.5 mg/mL). […] The plate was shaken for 10 minutes before reading the absorbance at 570 nm using a microplate reader (SpectraMax 250, Molecular Devices, Sunnyvale, Calif., USA). The viability of treated cells was expressed as the percentage of control cells. […]
(Tetrazolium dyes change colour on reduction, which living cells bring about.)

Data set [6] relates to HT-29 human colon carcinoma cells. In words: SRB growth inhibition assay in HT-29 cells. Format: cell-based. The protocol: Growth inhibition of HT-29 cells induced by the test compounds was also evaluated by the SRB assay, which is based on measuring total biomass by staining the cellular proteins with sulforhodamine B (Skehan et al., J. Natl. Cancer Inst., 1990, 82:1107). After treating the HT-29 cells with the compounds for 24 hours, the adherent cells grown in 96-well plates were fixed with 10% trichloroacetic acid and incubated for 1 hour at 4° C. The plates were washed five times with tap water, dried, and stained with SRB solution (0.4% wt/vol in 1% acetic acid) for 30 minutes at room temperature. The plates were again washed and dried before adding 10 mM Tris base to solubilize the bound stain. Optical densities (OD) were read at 564 nm in SpectraMax 250 and cell growth of treated cells was expressed as the percentage of control cells, ODtest/ODcontrol×100%.

Where [7] appears, read: Plasmodium falciparum, DD2, 72 h, P. falciparum Dd2, 72 hours.
[8] abbreviates: Plasmodium falciparum, D6, 72 h, P. falciparum D6, 72 hours.
Setting [9] is: Plasmodium falciparum, DD2, 72 h.
Where [10] appears, read: Plasmodium falciparum, D6, 72 h.

SMILES strings stand for the structures. Read-outs that look alike come from different tables or passages of the source.

In general, EC50 refers to the midpoint of the concentration-response curve. For `CCN(CC)CCCC(C)Nc1ccnc2cc(Cl)ccc12` (stereo not shown) [chloroquine, reference compound], the EC50 in data set [1] (Plasmodium falciparum, D6, read-out: EC50 against the D6 strain) was determined as 0.01 µM.

Usually IC50 stands for the concentration that inhibits the measured activity by half. Broadly, the IC90 is the concentration at which the effect reaches the 90% level. `CC(=O)c1cccc(N[C@H]2[C@H](N)[C@](C)(NC(=O)N(C)C)[C@@](C)(O)[C@@]2(O)COC(=O)c2c(C)cccc2O)c1` [TM-026, 7-demethyl-7-deoxypactamycin]: the half-maximal inhibitory concentration (IC50) is roughly 0.026 µM in data set [2] (P. falciparum Dd2, 72 hours); 0.025 to 0.03 µM in [2] (setting [7]); roughly 0.03 µM in data set [1] (P. falciparum D6, 72 hours); 0.025 to 0.03 µM in data set [1] (setting [8]); greater than 1000 µM in data set [3]; roughly 3 µM in data set [4]. The IC90 in data set [2] (P. falciparum Dd2, 72 hours) was roughly 0.077 µM; in [2] (setting [7]), 0.062 to 0.077 µM; in data set [1] (P. falciparum D6, 72 hours), roughly 0.063 µM; in [1] (setting [8]), 0.062 to 0.077 µM. For the same compound, in data set [3], the “antibacterial activity in agar diffusion and micro-dilution assays (in words)” value is given as “neither TM-025 nor TM-026 showed any significant activity”.

Consider `CC(=O)N[C@H]1C(Nc2cccc(C(C)=O)c2)O[C@H](CO)[C@@H](O)[C@@H]1O` (stereo partly shown) [N-acetylglucosaminyl-3-aminoacetophenone, reference compound], for which the “antimalarial activity (in words)” value in data set [2] (P. falciparum Dd2) and in data set [1] (P. falciparum D6) was “lack of activity” throughout.

As for `CC(=O)c1cccc(N[C@H]2[C@H](N)[C@](C)(NC(=O)N(C)C)[C@@](C)(O)[C@@]2(O)CO)c1` [TM-025, de-6MSA-7-demethyl-7-deoxypactamycin], the IC50 in data set [2] (P. falciparum Dd2, 72 hours) was roughly 0.025 µM; in data set [2] (setting [7]), 0.025 to 0.03 µM; in [1] (P. falciparum D6, 72 hours), roughly 0.025 µM; in data set [1] (setting [8]), 0.025 to 0.03 µM; in data set [3], greater than 1000 µM; in data set [4], roughly 1.3 µM. Also, the IC90 in data set [2] (P. falciparum Dd2, 72 hours) is roughly 0.076 µM; in data set [2] (setting [7]) it was 0.062 to 0.077 µM; in [1] (P. falciparum D6, 72 hours), roughly 0.062 µM; in data set [1] (setting [8]), 0.062 to 0.077 µM. Also, the “antibacterial activity in agar diffusion and micro-dilution assays (in words)” value in [3] is given as “neither TM-025 nor TM-026 showed any significant activity”.

Consider `CC(=O)c1cccc(N[C@H]2[C@H](N)[C@]3(NC(=O)O[C@H]3C)[C@@](C)(O)[C@@]2(O)CO)c1` [de-6MSA-pactamycate], for which the “antibacterial activity, growth of Mycobacterium smegmatis” value in the data set with Mycobacterium smegmatis is recorded as “no antibacterial activity”. Moreover, in the data set on Pseudomonas aeruginosa, the “antibacterial activity, growth of Pseudomonas aeruginosa” value is given as “no antibacterial activity”. Besides, the “antibacterial activity, growth of Staphylococcus aureus” value in the data set with Staphylococcus aureus is reported as “no antibacterial activity”. Besides, in the data set on E. coli, the “antibacterial activity, growth of E. coli” value was “no antibacterial activity”.

As to `C[C@@H]1CC[C@H]2[C@@H](C)C(=O)O[C@@H]3O[C@@]4(C)CC[C@@H]1[C@]32OO4` [artemisinin, reference compound], in data set [2] (Plasmodium falciparum, Example 2, FIG. 14, multi-drug resistant Dd2, read-out: EC50 against the Dd2 strain), the EC50 is 0.007 µM.

Consider `CC(=O)c1cccc(N[C@H]2[C@H](N)[C@]3(NC(=O)O[C@H]3C)[C@@](C)(O)[C@@]2(O)COC(=O)c2c(C)cccc2O)c1` [pactamycate, reference compound], for which, in data set [2] (setting [9]), the IC50 was roughly 0.3 µM and the 90% effect concentration (IC90) was roughly 0.8 µM. In data set [1] (setting [10]), the IC50 is roughly 0.3 µM and the concentration for an effect of 90% (IC90) was roughly 0.8 µM. The “antibacterial activity, growth of Mycobacterium smegmatis” value with Mycobacterium smegmatis is on record as “no antibacterial activity”. In the data set with Pseudomonas aeruginosa, the “antibacterial activity, growth of Pseudomonas aeruginosa” value is listed as “no antibacterial activity”. Further, the “antibacterial activity, growth of Staphylococcus aureus” value in the data set on Staphylococcus aureus is “no antibacterial activity”. Further, the “antibacterial activity, growth of E. coli” value with E. coli is given as “no antibacterial activity”. In data set [5], the “cytotoxicity profile (MTT-based assay)” value was “reduced cytotoxicity profile”. For the same compound, the “cytotoxicity profile (SRB-based assay)” value in data set [6] is recorded as “reduced cytotoxicity profile”.
